Measured values as given in US20230173018A1, “CASPOFUNGIN DERIVATIVES AND ASSAYS FOR EVALUATING ANTIFUNGAL TREATMENT EFFICACY” (priority 2020, published 2023).
In brackets after ≈: the same amount, converted by molar mass. Where two headings read alike, the source gives them in different places.

Tests used:
Format in all cases: cell-based
C. glabrata TGL00294 = assay: microbe, parasite or virus in culture
Text: (§1) The antifungal activities of compounds 1a, 1 and 2 (collectively: caspofungin derivatives) were compared to that of caspofungin and CSF-BOD using a panel of 49 C. albicans and C. glabrata strains (Tables 1 and 2). The panel included ATCC strains and clinical isolates as well a collection of caspofungin-responsive strains and their corresponding isogenic caspofungin-resistant derivatives, constructed by introducing point mutations within and near the defined hotspots in the FKS1 and/or FKS2 genes of the GS complex. Minimal inhibitory concentration (MIC) values for all strains were determined using the broth double dilution method and are summarized in FIG. 2 and Table 2. […] The clinical breakpoints (threshold) for caspofungin-resistance in C. albicans and C. glabrata are 1 μg/mL and 0.5 μg/mL, respectively.

C. glabrata TGL00275 = assay: microbe, parasite or virus in culture
Text: as §1

C. glabrata TGL00256 = assay: microbe, parasite or virus in culture
Text: as §1

C. glabrata TGL00263 = assay: microbe, parasite or virus in culture
Text: as §1

C. glabrata TGL00293 = assay: microbe, parasite or virus in culture
Text: as §1

C. glabrata TGL00253 = assay: microbe, parasite or virus in culture
Text: as §1

[1] = test system: C. albicans T-2068 (DP-C42); assay: microbe, parasite or virus in culture
Text: as §1

C. glabrata TGL00258 = assay: microbe, parasite or virus in culture
Text: as §1

C. glabrata TGL00091 = assay: microbe, parasite or virus in culture
Text: as §1

[2] = test system: C. albicans DPL1015 (DP-A15); assay: microbe, parasite or virus in culture
Text: as §1

C. albicans SN95 = assay: microbe, parasite or virus in culture; conditions: strain no. 8, SN95, parental RM1000
Text: as §1

C. glabrata TGL00264 = assay: microbe, parasite or virus in culture
Text: as §1

C. glabrata TGL00277 = assay: microbe, parasite or virus in culture
Text: as §1

C. albicans ATCC 10231 = assay: MIC, broth double dilution
Text: as §1

[3] = test system: C. glabrata T-191 (11-331); assay: MIC, broth double dilution
Text: as §1

C. albicans ATCC 24433 = assay: MIC, broth double dilution; conditions: strain no. 6, C. albicans ATCC 24433
Text: as §1

C. glabrata CST34 = assay: MIC, broth double dilution; conditions: strain no. 21, C. glabrata CST34 (parental)
Text: as §1

C. albicans SC5314 = assay: MIC, broth double dilution; conditions: strain no. 1, C. albicans SC5314, WT
Text: as §1

C. glabrata ATCC 66032 = assay: MIC, broth double dilution; conditions: strain no. 40, C. glabrata ATCC 66032
Text: as §1

C. glabrata BG2 = assay: MIC, broth double dilution; conditions: strain no. 34, C. glabrata BG2
Text: as §1

C. glabrata ATCC 15126 = assay: MIC, broth double dilution
Text: as §1

[4] = test system: C. glabrata T-984 (11-078); assay: MIC, broth double dilution
Text: as §1

C. glabrata T-192 (1775) = assay: MIC, broth double dilution
Text: as §1

[5] = test system: C. glabrata T-190 (11-304); assay: MIC, broth double dilution
Text: as §1

C. glabrata EF1620 = assay: MIC, broth double dilution; conditions: strain no. 31, C. glabrata EF1620
Text: as §1

C. albicans SN152 = assay: MIC, broth double dilution; conditions: strain no. 5, C. albicans SN152
Text: as §1

[6] = test system: C. glabrata T-982 (11-181); assay: MIC, broth double dilution
Text: as §1

[7] = test system: C. glabrata T-983 (11-079); assay: MIC, broth double dilution
Text: as §1

[8] = test system: C. glabrata T-193 (11-282); assay: MIC, broth double dilution
Text: as §1

C. glabrata ATCC 90030 = assay: MIC, broth double dilution
Text: as §1

C. albicans BWP17 = assay: MIC, broth double dilution; conditions: strain no. 9, BWP17, parental RM1000
Text: as §1

C. glabrata ATCC 2001 = assay: MIC, broth double dilution
Text: as §1

C. glabrata CST109 = assay: MIC, broth double dilution; conditions: strain no. 18, C. glabrata CST109 (parental)
Text: as §1

[9] = Candida albicans, read-out: MIC
[10] = Nakaseomyces glabratus, read-out: MIC

CC[C@H](C)C[C@H](C)CCCCCCCCC(=O)N[C@H]1C[C@@H](O)[C@@H](NCCN)NC(=O)[C@@H]2[C@@H](O)CCN2C(=O)[C@H]([C@H](O)CCN)NC(=O)[C@H]([C@H](O)[C@@H](O)c2ccc(O)cc2)NC(=O)[C@@H]2C[C@@H](O)CN2C(=O)[C@H]([C@@H](C)O)NC1=O [Caspofungin]
MIC (C. glabrata TGL00294; Nakaseomyces glabratus, TGL00294): 16 µg/mL (≈ 14.6 µM) | MIC (C. glabrata TGL00275; Nakaseomyces glabratus, TGL00275): 8 µg/mL (≈ 7.32 µM) | MIC (C. glabrata TGL00256; Nakaseomyces glabratus, TGL00256): 1 µg/mL (≈ 0.915 µM) | MIC (C. glabrata TGL00263; Nakaseomyces glabratus, TGL00263): 8 µg/mL (≈ 7.32 µM) | MIC (C. glabrata TGL00293; Nakaseomyces glabratus, TGL00293): > 64 µg/mL | MIC (C. glabrata TGL00253; Nakaseomyces glabratus, TGL00253): > 64 µg/mL | MIC ([1]; Candida albicans, SC5314): 16 µg/mL (≈ 14.6 µM) | MIC (C. glabrata TGL00258; Nakaseomyces glabratus, TGL00258): > 64 µg/mL | MIC (C. glabrata TGL00091; Nakaseomyces glabratus, TGL00091): > 64 µg/mL | MIC ([2]; Candida albicans, SC5314): 4 µg/mL (≈ 3.66 µM) | MIC (C. albicans SN95; [9]): 0.063 µg/mL (≈ 0.0576 µM) | MIC (C. glabrata TGL00264; Nakaseomyces glabratus, TGL00264): 2 µg/mL (≈ 1.83 µM) | MIC (C. glabrata TGL00277; Nakaseomyces glabratus, TGL00277): > 64 µg/mL | MIC (C. albicans ATCC 10231; Candida albicans, ATCC10231): 0.125 µg/mL (≈ 0.114 µM) | MIC ([3]; Nakaseomyces glabratus): 0.063 µg/mL (≈ 0.0576 µM) | MIC (C. albicans ATCC 24433; Candida albicans, ATCC24433, read-out: MIC): 0.063 µg/mL (≈ 0.0576 µM) | MIC (C. glabrata CST34; [10]): 0.063 µg/mL (≈ 0.0576 µM) | MIC (C. albicans SC5314; [9]): 0.031 µg/mL (≈ 0.0284 µM) | MIC (C. glabrata ATCC 66032; Nakaseomyces glabratus, ATCC66032, read-out: MIC): 0.125 µg/mL (≈ 0.114 µM) | MIC (C. glabrata BG2; [10]): 0.125 µg/mL (≈ 0.114 µM) | MIC (C. glabrata ATCC 15126; Nakaseomyces glabratus, ATCC15126): 0.125 µg/mL (≈ 0.114 µM) | MIC ([4]; Nakaseomyces glabratus): 0.063 µg/mL (≈ 0.0576 µM) | MIC (C. glabrata T-192 (1775); Nakaseomyces glabratus): 0.063 µg/mL (≈ 0.0576 µM) | MIC ([5]; Nakaseomyces glabratus): 0.063 µg/mL (≈ 0.0576 µM) | MIC (C. glabrata EF1620; [10]): 0.063 µg/mL (≈ 0.0576 µM) | MIC (C. albicans SN152; [9]): 0.031 µg/mL (≈ 0.0284 µM) | MIC ([6]; Nakaseomyces glabratus): 0.063 µg/mL (≈ 0.0576 µM) | MIC ([7]; Nakaseomyces glabratus): 0.063 µg/mL (≈ 0.0576 µM) | MIC ([8]; Nakaseomyces glabratus): 0.125 µg/mL (≈ 0.114 µM) | MIC (C. glabrata ATCC 90030; Nakaseomyces glabratus, ATCC90030): 0.125 µg/mL (≈ 0.114 µM) | MIC (C. albicans BWP17; [9]): 0.031 µg/mL (≈ 0.0284 µM) | MIC (C. glabrata ATCC 2001; Nakaseomyces glabratus, ATCC2001): 0.125 µg/mL (≈ 0.114 µM) | MIC (C. glabrata CST109; [10]): 0.125 µg/mL (≈ 0.114 µM)

CC[C@H](C)C[C@H](C)CCCCCCCCC(=O)N[C@H]1C[C@@H](O)[C@@H](NCCNC(=O)CCc2ccc3n2[B-](F)(F)[N+]2=C(C)C=C(C)C2=C3)NC(=O)[C@@H]2[C@@H](O)CCN2C(=O)[C@H]([C@H](O)CCN)NC(=O)[C@H]([C@H](O)[C@@H](O)c2ccc(O)cc2)NC(=O)[C@@H]2C[C@@H](O)CN2C(=O)[C@H]([C@@H](C)O)NC1=O [CSF-BOD]
MIC (C. glabrata TGL00294; strain no. 38, TGL00294, parental BG2, FKS mutant): >64 µg/mL | MIC (C. glabrata TGL00275; strain no. 32, TGL00275, FKS mutant): >64 µg/mL | MIC (C. glabrata TGL00256; strain no. 24, TGL00256, parental CST34, FKS mutant): 8 µg/mL (≈ 5.85 µM) | MIC (C. glabrata TGL00263; strain no. 28, TGL00263, parental CST78, FKS mutant): >64 µg/mL | MIC (C. glabrata TGL00293; strain no. 37, TGL00293, parental BG2, FKS mutant): >64 µg/mL | MIC (C. glabrata TGL00253; strain no. 20, TGL00253, parental CST109, FKS2 mutant): >64 µg/mL | MIC ([1]; strain no. 4, T-2068 (DP-C42), parental SC5314, FKS1 HS1-F641S mutation): >64 µg/mL | MIC (C. glabrata TGL00258; strain no. 25, TGL00258, parental CST34, FKS mutant): >64 µg/mL | MIC (C. glabrata TGL00091; strain no. 35, TGL00091, FKS mutant): >64 µg/mL | MIC ([2]; strain no. 2, DPL1015 (DP-A15), parental SC5314, FKS1 mutant HS1-S645S/P): 16 µg/mL (≈ 11.7 µM) | MIC (C. albicans SN95): 2 µg/mL (≈ 1.46 µM) | MIC (C. glabrata TGL00264; strain no. 29, TGL00264, parental CST78, FKS mutant): >64 µg/mL | MIC (C. glabrata TGL00277; strain no. 33, TGL00277, parental EF1620, FKS mutant): >64 µg/mL | MIC (C. albicans ATCC 10231; strain no. 11, C. albicans ATCC 10231): 2 µg/mL (≈ 1.46 µM) | MIC ([3]; strain no. 43, T-191 (11-331), clinical isolate): 1 µg/mL (≈ 0.731 µM) | MIC (C. albicans ATCC 24433): 2 µg/mL (≈ 1.46 µM) | MIC (C. glabrata CST34): 1 µg/mL (≈ 0.731 µM) | MIC (C. albicans SC5314): 1 µg/mL (≈ 0.731 µM) | MIC (C. glabrata ATCC 66032): 2 µg/mL (≈ 1.46 µM) | MIC (C. glabrata BG2): 2 µg/mL (≈ 1.46 µM) | MIC (C. glabrata ATCC 15126; strain no. 41, C. glabrata ATCC 15126): 2 µg/mL (≈ 1.46 µM) | MIC ([4]; strain no. 48, T-984 (11-078), clinical isolate): 2 µg/mL (≈ 1.46 µM) | MIC (C. glabrata T-192 (1775); strain no. 44, T-192 (1775), clinical isolate): 2 µg/mL (≈ 1.46 µM) | MIC ([5]; strain no. 42, T-190 (11-304), clinical isolate): 1 µg/mL (≈ 0.731 µM) | MIC (C. glabrata EF1620): 1 µg/mL (≈ 0.731 µM) | MIC (C. albicans SN152): 1 µg/mL (≈ 0.731 µM) | MIC ([6]; strain no. 46, T-982 (11-181), clinical isolate): 1 µg/mL (≈ 0.731 µM) | MIC ([7]; strain no. 47, T-983 (11-079), clinical isolate): 2 µg/mL (≈ 1.46 µM) | MIC ([8]; strain no. 45, T-193 (11-282), clinical isolate): 1 µg/mL (≈ 0.731 µM) | MIC (C. glabrata ATCC 90030; strain no. 16, C. glabrata ATCC 90030, WT): 2 µg/mL (≈ 1.46 µM) | MIC (C. albicans BWP17): 1 µg/mL (≈ 0.731 µM) | MIC (C. glabrata ATCC 2001; strain no. 39, C. glabrata ATCC 2001): 1 µg/mL (≈ 0.731 µM) | MIC (C. glabrata CST109): 2 µg/mL (≈ 1.46 µM)
